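Growth conditions: 96-well plates. Treatment: test compound, 48 hours, 5 concentrations. Analysis: linear interpolation between bracketing concentrations; unreached endpoints set to highest concentration. GI50: concentration for 50% inhibition of growth. TGI marks complete inhibition of growth.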 *1 amine or outer side, *2 acyl side, *3 side chain or, on linkers, in order; H or OH if unused. Where a SMILES comes first, the peptide text is derived from it. Bridges are numbered along the chain shown (N, C = ends). [ ]: non-standard residue; d: D form. X59 = COc1c(N[*:1])cccc1C(=O)O[C@H](C(=O)[C@H](C)C(=O)[*:2])C(C)C; X58 = CC(C)C[C@H](C(=O)[*:2])C(C)C(=O)C1CCCN1[*:1]; NMeY = CN[C@@H](Cc1ccc(O)cc1)C(=O)O; Lac = C[C@H](O)C(=O)O
Experiments:
Experiment in all cases: NCI anticancer screen, dose series, 48 h
K-562 leukemia = test system: K-562 leukemia
CAKI-1 renal = test system: CAKI-1 renal
SF-539 CNS = test system: SF-539 CNS
CCRF-CEM leukemia = test system: CCRF-CEM leukemia
OVCAR-5 ovarian = test system: OVCAR-5 ovarian
LOX IMVI melanoma = test system: LOX IMVI melanoma
SK-MEL-28 melanoma = test system: SK-MEL-28 melanoma
SN12C renal = test system: SN12C renal
A498 renal = test system: A498 renal
UACC-62 melanoma = test system: UACC-62 melanoma
MDA-MB-435 = test system: MDA-MB-435
UACC-257 melanoma = test system: UACC-257 melanoma

| Compound | TGI (K-562 leukemia) | TGI (CAKI-1 renal) | TGI (SF-539 CNS) | TGI (CCRF-CEM leukemia) | TGI (OVCAR-5 ovarian) | TGI (LOX IMVI melanoma) | TGI (SK-MEL-28 melanoma) | TGI (SN12C renal) | TGI (A498 renal) | TGI (UACC-62 melanoma) | TGI (MDA-MB-435) | TGI (UACC-257 melanoma) | GI50 (CAKI-1 renal) |
| --- | --- | --- | --- | --- | --- | --- | --- | --- | --- | --- | --- | --- | --- |
| CC(=O)OC1CC2C(C)(C)OC(=O)CC(OC(C)=O)[C@]2(C)C2CCC3(C)C(=CCC3c3ccoc3)[C@]12C (stereo partly specified) | > 100 µM | > 100 µM | 93.3 µM | 87.3 µM | > 100 µM | > 100 µM | > 100 µM | > 100 µM | > 100 µM | > 100 µM |  |  |  |
| Oc1ccccc1-c1n[nH]c(-c2ccccc2O)n1 | > 100 µM | > 100 µM | > 100 µM | > 100 µM | > 100 µM | > 100 µM | > 100 µM | > 100 µM | > 100 µM | > 100 µM | > 100 µM |  |  |
| Brc1ccc(N=Nc2ccc3ccccc3n2)cc1 |  | 47 µM | 55.2 µM | > 100 µM | > 100 µM |  |  | > 100 µM |  | 43.5 µM | > 100 µM | > 100 µM |  |
| COC(=O)C1=C(C(=O)OC)C(OO)(c2ccccc2)OC1=O (stereo unspecified) | > 100 µM | > 100 µM | > 100 µM | > 100 µM | > 100 µM | 96 µM | > 100 µM | > 100 µM |  | > 100 µM | > 100 µM | > 100 µM |  |
| O=C(NN1C(=O)C(Cl)C1c1cccc(Cl)c1)c1ccccc1O (stereo unspecified) | > 100 µM |  | > 100 µM | > 100 µM |  | > 100 µM | > 100 µM | > 100 µM | > 100 µM | > 100 µM |  | > 100 µM |  |
| COC(=O)/C=C1/OC(c2ccc(C)cc2C)=CC1=O | 10.8 µM | 34.5 µM | 33 µM | > 100 µM | 31.7 µM | 17.6 µM | 36.3 µM |  | 42.3 µM | 26.5 µM | 30.1 µM |  |  |
| CN(C(=O)c1cc2c(s1)sc1c(=O)n(C)c3ccccc3c12)c1ccccc1 | > 100 µM | 40.8 µM | 59.8 µM | > 100 µM | > 100 µM | > 100 µM | > 100 µM | > 100 µM |  | > 100 µM | > 100 µM | > 100 µM |  |
| Cc1ccc2nc(-c3ccc(-c4nc5ccc(C)cc5o4)c(O)c3)oc2c1 | > 100 µM |  | > 100 µM | > 100 µM | > 100 µM | > 100 µM | > 100 µM | > 100 µM | > 100 µM | > 100 µM | > 100 µM |  |  |
| CC1(C)N([O-])[N+](=O)C1(Br)c1ccccc1 (stereo unspecified) | > 100 µM | > 100 µM | > 100 µM | > 100 µM | > 100 µM | > 100 µM | > 100 µM | > 100 µM |  | > 100 µM | > 100 µM | > 100 µM |  |
| COc1cc(/C=C2\CC(C)C/C(=C\c3ccc(O)c(OC)c3)C2=O)ccc1O (stereo unspecified) | > 73.5 µM |  | > 23.7 µM | > 45 µM | 40.8 µM | 5.79 µM | 8.95 µM | 8.35 µM | 9.61 µM | 4.01 µM | 6.21 µM | 9.08 µM |  |
| COc1ccc(C[C@H]2C(=O)O[C@H](C)[C@H](NC(=O)[C@@H](CC(C)C)C(C)C(=O)C3CCCN3C(=O)[C@H](C)O)C(=O)Nc3cccc(c3OC)C(=O)O[C@@H](C(C)C)C(=O)[C@H](C)C(=O)N[C@@H](CC(C)C)C(=O)N3CCC[C@H]3C(=O)N2C)cc1 (stereo partly specified) (H-[Lac][X58]T[X59]LP[NMeY](Me); ester 3-C) | > 12.5 µM | > 12.5 µM | > 12.5 µM |  | > 12.5 µM | > 12.5 µM | > 12.5 µM | > 12.5 µM |  | > 12.5 µM | > 12.5 µM | > 12.5 µM |  |
| C=CC[C@@]12CCC(=O)C=C1CCCC2=O | > 100 µM | > 100 µM | > 100 µM |  | > 100 µM | > 100 µM | > 100 µM | > 100 µM | > 100 µM | > 100 µM | > 100 µM | > 100 µM |  |
| O=c1cc(-c2ccc3ccccc3c2)[nH]c2ncccc12 | 12 µM | > 100 µM | 64.9 µM | > 100 µM | > 100 µM | > 100 µM | > 100 µM | > 100 µM | 48.7 µM | > 100 µM |  | > 100 µM | 5.63 µM |
| CC(=O)c1sc2n(C)c(=O)c3ccccc3[n+]2c1C | > 100 µM | > 100 µM | > 100 µM | > 100 µM | > 100 µM | > 100 µM | > 100 µM | > 100 µM |  | > 100 µM | > 100 µM | > 100 µM |  |
| CCOC(=O)CON=c1c2ccccc2ccc2ccccc12 | > 100 µM | > 100 µM | > 100 µM | > 100 µM | > 100 µM | > 100 µM | > 100 µM | > 100 µM |  | > 100 µM | > 100 µM | > 100 µM |  |
| Cc1cc(C)nc(NS(=O)(=O)c2ccc(Nc3nnc(/C=C/c4c(O)ccc5ccccc45)c(=O)n3N)cc2)n1 | > 100 µM | 59.8 µM |  | > 100 µM | 75.4 µM |  |  | 73.2 µM |  | 60.1 µM | 57.6 µM |  |  |
| CC(C)(C)OC(=O)NC(Cc1ccc(OCc2ccccc2)cn1)C(=O)O (stereo unspecified) | > 100 µM | > 100 µM | > 100 µM |  | > 100 µM | > 100 µM | > 100 µM | > 100 µM | > 100 µM |  | > 100 µM | > 100 µM |  |
| C/C(CC(=O)Nc1ccccc1)=N\NC(N)=S | > 100 µM |  | > 100 µM | > 100 µM | > 100 µM | > 100 µM | > 100 µM |  |  | > 100 µM |  | > 100 µM |  |
| Cc1ccc(S(=O)(=O)NC(=O)NCC(N)=O)cc1 | > 100 µM |  | > 100 µM | > 100 µM | > 100 µM | > 100 µM | > 100 µM | > 100 µM |  | > 100 µM |  | > 100 µM |  |
| CCC1(CC)C(=O)NN(C(=O)c2ccc(Cl)cc2)C1=O | > 100 µM | > 100 µM |  | > 100 µM | > 100 µM | > 100 µM | > 100 µM | > 100 µM |  | > 100 µM | > 100 µM | > 100 µM |  |

From PubChem BioAssay (NCI)
